ChEMBL document CHEMBL1137251, “Synthesis of rigid trichostatin A analogs as HDAC inhibitors” (Bioorg Med Chem Lett, 2006)
Calls of active or inactive are those of the source. The rule behind the calls is not given here.

Tests used:
[1] = molecular target: Histone H4 (Homo sapiens) (UniProt P62805); test: Acetylation of histone H4 at 2.5 uM by Western blot analysis
[2] = Antiproliferative activity against H661 cells; format: functional, cell-based; details: Homo sapiens, NCI-H661
HCT-116 = test: Antiproliferative activity against HCT116 cells; format: functional, cell-based; details: Homo sapiens
[3] = Antiproliferative activity against H1299 cells; format: functional, cell-based; details: Homo sapiens, NCI-H1299
[4] = molecular target: Histone H4 (Homo sapiens) (UniProt P62805); test: Acetylation of histone H4 at 0.3 uM by Western blot analysis
[5] = molecular target: Histone H4 (Homo sapiens) (UniProt P62805); test: Acetylation of histone H4 at 5 uM by Western blot analysis

SMILES | IC50 [2] | other results
CC(/C=C/C(=O)NO)=C\C1(C)Cc2cc(F)ccc2C1=O (centres undefined) | 1500 nM | Activity [1]: Active
CC(/C=C/C(=O)NO)=C\[C@@H](C)C(=O)c1ccc(N(C)C)cc1 [TRICHOSTATIN] | < 300 nM | IC50 (HCT-116): 1.3 nM; IC50 [3]: 100 nM
CC(/C=C/C(=O)Nc1ccccc1N)=C\C1(C)Cc2cc(F)ccc2C1=O (centres undefined) | 7000 nM | –
CC(/C=C/C(=O)NO)=C\C1(C)Cc2ccccc2C1=O (centres undefined) | 1650 nM | –
CC(/C=C/C(=O)Nc1ccccc1N)=C\C1(C)CCc2ccccc2C1=O (centres undefined) | 5000 nM | –
CC(/C=C/C(=O)NO)=C\C1(C)Cc2cc(N(C)C)ccc2C1=O (centres undefined) | – | Activity [4]: Active
CC(/C=C/C(=O)Nc1ccccc1N)=C\C1(C)Cc2ccccc2C1=O (centres undefined) | 3000 nM | –
C=C(/C=C/C(=O)Nc1ccccc1N)CC1(C)Cc2ccccc2C1=O (centres undefined) | > 10000 nM | –
CC(/C=C/C(=O)NO)=C\C1(C)CCc2ccccc2C1=O (centres undefined) | 3000 nM | Activity [5]: Active
CC(/C=C/C(=O)Nc1ccccc1N)=C\C1(C)Cc2cc(N(C)C)ccc2C1=O (centres undefined) | 2500 nM | –
